Laboratory results: patent US20090155784A1, “ASSESSMENT OF ASTHMA AND ALLERGEN-DEPENDENT GENE EXPRESSION” (Wyeth, priority 2007, published 2009)

Tested on: PBMCs from healthy volunteers
Experiment: HG-U133A baseline gene expression in PBMCs of healthy volunteers (HV), cPLA2 inhibitor in the absence of allergen (no AG)
Type: cell-based, human
Source text: PBMCs were stimulated in vitro with a cocktail containing 4 different allergens from house dust mite, ragweed and cat. Recombinant allergens, Der p1, Der f2, Fel d1 (Indoor Biotech, Charlottesville, Va.) and natural ragweed allergen (Allergy Lab, Seattle, Wash.) were selected and screened for endotoxin contamination (LAL Endotoxin Test, Catalog #HIT302, sensitivity, 0.0001 Eu/ml, Cell Sciences, Canton, Mass.). The sensitivity of the subjects was unknown but the allergens were chosen based on the estimate that 80% of allergic individuals are believed to react to one or more of these allergens. Culture medium contained RPMI-1640 (Sigma) with 10% heat inactivated FCS (Sigma St. Louis, Mo.) and 100 unit/mL Penicillin and […] Streptomycin and 0.292 mg/mL Glutamine (GIBCO RL Invitrogen, Carlsbad, Calif.). The final allergen cocktail concentrations in culture medium were: Der p1 and Der f2 (dust mite), 1 mg/ml; Fel d1 (cat), 1.25 mg/ml; ragweed, 125 mg/ml. The total level of endotoxin contamination in culture medium was 0.057 Eu/ml. The cPLA2 inhibitor 4-{3-[1-benzhydryl-5-chloro-2-(2-{[(2,6-dimethylbenzyl)sulfonyl]amino}ethyl)-1H-indol-3-yl]propyl}benzoic acid was used at a concentration of 0.3 μM/ml. Zileuton, a 5-lipoxygenase inhibitor, was added at a concentration of 5 μM. The inhibitory activity of both the cPLA2 inhibitor and Zileuton samples were verified in a human whole blood assay. After 6 days in culture approximately 200 μL of supernatant was removed using an 8-channel pipettor without disturbing the cell pellet and placed into a collection plate for cytokine ELISA assays. To the remaining cell pellet 100 μL of RLT lysis buffer containing 1% beta-mercaptoethanol was added and snap frozen for RNA purification.
RNA was purified using QIA shredders and Rneasy mini kits (Qiagen, Valencia, Calif.). PBMC pellets frozen in RLT lysis buffer containing 1% β-mercaptoethanol were thawed and processed for total RNA isolation using the QIA shredder and RNeasy mini kit. A phenol:chloroform extraction was then performed, and the RNA was repurified using the RNeasy mini kit reagents. Eluted RNA was quantified using a Spectramax96 well plate UV reader (Molecular Devices, Sunnyvale, Calif., USA) monitoring A260/280 OD values. The quality of each RNA sample was assessed by capillary electrophoresis alongside an RNA molecular weight ladder on the Agilent 2100 bioanalyzer (Agilent Technologies, Palo Alto, Calif., USA). RNA samples were assigned quality values of intact (distinct 18S and 28S bands); partially degraded (discernible 18S and 28S bands with presence of low molecular weight bands) or completely degraded (no discernible 18S and 28S bands).
Labeled targets for oligonucleotide arrays were prepared using a modification of the procedure described by Lockhart et al. (Lockhart (1996) Nat. Biotechnol. 14:1675-80). Labeled targets were hybridized to the HG-U133A Affymetrix GeneChip Array as described in the Affymetrix technical manual. Eleven biotinylated control transcripts ranging in abundance from 3 parts per million (ppm) to 100 ppm were spiked into each sample to function as a standard curve (Hill (2001) Genome Biol. 2:RESEARCH0055). GeneChip MAS 5.0 software was used to evaluate the hybridization intensity, compute the signal value for each probe set and make an absent/present call.
GeneChips were required to pass the pre-set quality control criteria that the RNA quality metric required a 5′:3′ ratio. Two asthma subjects were excluded from the study due to failure to meet the RNA quality metric and 2 GeneChips from the group treated with cPLA2a inhibitor were excluded for the same reason. The signal value for each probe set was converted into a frequency value representative of the number of transcripts present in 10^6 transcripts by reference to the standard curve (Hill (2001) Genome Biol. 2:RESEARCH0055). […]

[1] = healthy population, no allergen

Cc1cccc(C)c1CS(=O)(=O)NCCc1c(CCCc2ccc(C(=O)O)cc2)c2cc(Cl)ccc2n1C(c1ccccc1)c1ccccc1 [cPLA2 inhibitor, 4-{3-[1-benzhydryl-5-chloro-2-(2-{[(2,6-dimethylbenzyl)sulfonyl]amino}ethyl)-1H-indol-3-yl]propyl}benzoic acid]
probes significantly downregulated in the presence of cPLA2 inhibition [1]: 43 probes | probes significantly upregulated in the presence of cPLA2 inhibition [1]: 36 probes | Fold Change cPLA2 inhibitor vs. no AG HV (probeset 44673_at, gene SN): 1.425 fold | Fold Change cPLA2 inhibitor vs. no AG HV (probeset 58696_at, gene RRP41): 1.202 fold | Fold Change cPLA2 inhibitor vs. no AG HV (probeset 200886_s_at, gene PGAM1): −1.153 fold | Fold Change cPLA2 inhibitor vs. no AG HV (probeset 200887_s_at, gene STAT1): 1.158 fold | Fold Change cPLA2 inhibitor vs. no AG HV (probeset 200923_at, gene LGALS3BP): 1.268 fold | Fold Change cPLA2 inhibitor vs. no AG HV (probeset 200976_s_at, gene TAX1BP1): 1.159 fold | Fold Change cPLA2 inhibitor vs. no AG HV (probeset 201061_s_at, gene STOM): 1.242 fold | Fold Change cPLA2 inhibitor vs. no AG HV (probeset 201090_x_at, gene K-ALPHA-1): 1.122 fold | Fold Change cPLA2 inhibitor vs. no AG HV (probeset 201118_at, gene PGD): 1.22 fold | Fold Change cPLA2 inhibitor vs. no AG HV (probeset 201298_s_at, gene C2ORF6): 1.106 fold | Fold Change cPLA2 inhibitor vs. no AG HV (probeset 201463_s_at, gene TALDO1): 1.153 fold | Fold Change cPLA2 inhibitor vs. no AG HV (probeset 201649_at, gene UBE2L6): 1.19 fold | Fold Change cPLA2 inhibitor vs. no AG HV (probeset 201785_at, gene RNASE1): −3.602 fold | Fold Change cPLA2 inhibitor vs. no AG HV (probeset 201945_at, gene FURIN): 1.348 fold | Fold Change cPLA2 inhibitor vs. no AG HV (probeset 202068_s_at, gene LDLR): 1.388 fold | Fold Change cPLA2 inhibitor vs. no AG HV (probeset 202193_at, gene LIMK2): 1.457 fold | Fold Change cPLA2 inhibitor vs. no AG HV (probeset 202245_at, gene LSS): 1.264 fold | Fold Change cPLA2 inhibitor vs. no AG HV (probeset 202269_x_at, gene GBP1): 1.475 fold | Fold Change cPLA2 inhibitor vs. no AG HV (probeset 202307_s_at, gene TAP1): 1.313 fold | Fold Change cPLA2 inhibitor vs. no AG HV (probeset 202308_at, gene SREBF1): 1.436 fold | Fold Change cPLA2 inhibitor vs. no AG HV (probeset 202510_s_at, gene TNFAIP2): 1.355 fold | Fold Change cPLA2 inhibitor vs. no AG HV (probeset 202531_at, gene IRF1): 1.259 fold | Fold Change cPLA2 inhibitor vs. no AG HV (probeset 202626_s_at, gene LYN): 1.54 fold | Fold Change cPLA2 inhibitor vs. no AG HV (probeset 202841_x_at, gene OGFR): 1.239 fold | Fold Change cPLA2 inhibitor vs. no AG HV (probeset 202847_at, gene PCK2): 1.344 fold | Fold Change cPLA2 inhibitor vs. no AG HV (probeset 202859_x_at, gene IL8): 2.42 fold | Fold Change cPLA2 inhibitor vs. no AG HV (probeset 202917_s_at, gene S100A8): 1.662 fold | Fold Change cPLA2 inhibitor vs. no AG HV (probeset 203922_s_at, gene CYBB): 1.52 fold | Fold Change cPLA2 inhibitor vs. no AG HV (probeset 203923_s_at, gene CYBB): 1.214 fold | Fold Change cPLA2 inhibitor vs. no AG HV (probeset 204034_at, gene ETHE1): 1.212 fold | Fold Change cPLA2 inhibitor vs. no AG HV (probeset 204224_s_at, gene GCH1): 1.48 fold | Fold Change cPLA2 inhibitor vs. no AG HV (probeset 204326_x_at, gene UNK_NM_002450): 2.024 fold | Fold Change cPLA2 inhibitor vs. no AG HV (probeset 204745_x_at, gene MT1G): 2.215 fold | Fold Change cPLA2 inhibitor vs. no AG HV (probeset 204858_s_at, gene ECGF1): 1.292 fold | Fold Change cPLA2 inhibitor vs. no AG HV (probeset 204929_s_at, gene VAMP5): 1.472 fold | Fold Change cPLA2 inhibitor vs. no AG HV (probeset 205322_s_at, gene MTF1): 1.553 fold | Fold Change cPLA2 inhibitor vs. no AG HV (probeset 205872_x_at, gene UNK_NM_022359): 1.629 fold | Fold Change cPLA2 inhibitor vs. no AG HV (probeset 205992_s_at, gene IL15): 1.522 fold | Fold Change cPLA2 inhibitor vs. no AG HV (probeset 206025_s_at, gene TNFAIP6): 1.671 fold | Fold Change cPLA2 inhibitor vs. no AG HV (probeset 206026_s_at, gene TNFAIP6): 1.866 fold | Fold Change cPLA2 inhibitor vs. no AG HV (probeset 206637_at, gene GPR105): 1.797 fold | Fold Change cPLA2 inhibitor vs. no AG HV (probeset 207091_at, gene P2RX7): 1.272 fold | Fold Change cPLA2 inhibitor vs. no AG HV (probeset 207277_at, gene CD209): 1.574 fold | Fold Change cPLA2 inhibitor vs. no AG HV (probeset 207533_at, gene CCL1): 2.229 fold | Fold Change cPLA2 inhibitor vs. no AG HV (probeset 207697_x_at, gene LILRB2): 1.484 fold | Fold Change cPLA2 inhibitor vs. no AG HV (probeset 208071_s_at, gene LAIR1): 1.82 fold | Fold Change cPLA2 inhibitor vs. no AG HV (probeset 208373_s_at, gene P2RY6): 1.593 fold | Fold Change cPLA2 inhibitor vs. no AG HV (probeset 208671_at, gene TDE2): −1.137 fold | Fold Change cPLA2 inhibitor vs. no AG HV (probeset 208699_x_at, gene TKT): 1.243 fold
